Measurements from ChEMBL document CHEMBL1132692, “Paclitaxel derivatives for targeted therapy of cancer: toward the development of smart taxanes” (J Med Chem, 1999).

Legend:
[1] = target: T1, Bombesin receptor subtype-3 (Homo sapiens) (UniProt P32247); experiment: Inhibition of [125I]Tyr3-BBN binding to NCI-H1299 cell line; format: cell-based; conditions: concentration not given here
T1 sequence (whole entry): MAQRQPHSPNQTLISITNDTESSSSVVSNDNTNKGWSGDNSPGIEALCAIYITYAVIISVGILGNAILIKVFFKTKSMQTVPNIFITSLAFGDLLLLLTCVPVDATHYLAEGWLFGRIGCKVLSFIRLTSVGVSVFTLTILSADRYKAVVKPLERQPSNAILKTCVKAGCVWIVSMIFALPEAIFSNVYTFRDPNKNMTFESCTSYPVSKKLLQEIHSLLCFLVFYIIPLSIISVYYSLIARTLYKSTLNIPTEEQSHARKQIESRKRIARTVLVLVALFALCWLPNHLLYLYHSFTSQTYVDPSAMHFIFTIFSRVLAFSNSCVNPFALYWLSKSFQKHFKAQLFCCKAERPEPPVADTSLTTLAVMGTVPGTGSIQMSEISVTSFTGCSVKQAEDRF

[2] = target: Gastrin-releasing peptide receptor (Mus musculus) (UniProt P21729); experiment: Inhibition of [125I]Tyr3-BBN binding to BNR-11 cell line (Bombesin/gastrin-releasing peptide receptor); format: cell-based; conditions: concentration not given here
NCI-H1299 [3] = experiment: Inhibitory concentration against NCI-H1299 Human Nonsmall cell lung cancer cells after 24 hr exposure to the compound.; format: functional, cell-based; conditions: NCI-H1299, 24 h
NCI-H1299 [4] = experiment: Inhibitory concentration against NCI-H1299 Human Nonsmall cell lung cancer cells after 96h exposure to the compound.; format: functional, cell-based; conditions: NCI-H1299, 96 h

Chain of Gastrin-releasing peptide receptor (Mus musculus) (P21729 whole entry): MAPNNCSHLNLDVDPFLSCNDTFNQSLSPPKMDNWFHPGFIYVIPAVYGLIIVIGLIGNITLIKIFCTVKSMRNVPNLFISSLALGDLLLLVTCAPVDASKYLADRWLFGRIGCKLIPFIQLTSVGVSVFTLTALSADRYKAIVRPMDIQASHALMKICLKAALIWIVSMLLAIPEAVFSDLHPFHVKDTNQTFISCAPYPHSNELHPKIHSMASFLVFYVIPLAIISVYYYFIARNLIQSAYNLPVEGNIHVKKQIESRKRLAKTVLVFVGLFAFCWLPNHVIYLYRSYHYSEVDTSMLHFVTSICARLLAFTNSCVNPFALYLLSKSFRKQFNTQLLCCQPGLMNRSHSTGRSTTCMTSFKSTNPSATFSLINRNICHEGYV

inhibition [1] [%]	inhibition [2] [%]	IC50 (NCI-H1299 [3]) [nM]	IC50 (NCI-H1299 [4]) [nM]	SMILES
3.6	14	–	–	CC(C)C[C@H](NC(=O)[C@H](Cc1c[nH]cn1)NC(=O)CNC(=O)[C@@H](NC(=O)[C@H](C)NC(=O)[C@H](Cc1c[nH]c2ccccc12)NC(=O)[C@@H](N)CCC(N)=O)C(C)C)C(N)=O
–	–	35	15	CC(=O)O[C@H]1C(=O)[C@@]2(C)[C@H]([C@H](OC(=O)c3ccccc3)[C@]3(O)C[C@H](OC(=O)[C@H](O)[C@@H](NC(=O)c4ccccc4)c4ccccc4)C(C)=C1C3(C)C)[C@]1(OC(C)=O)CO[C@@H]1C[C@@H]2O [PACLITAXEL]
